This experiment has as its system neurons in the DMV. As to the kind of experiment: Chemogenetic (DREADDs) inhibition of DMV neurons by CNO in obese mice: body weight, blood lipid, fecal TG, jejunal TG. In kind it is in vivo, C57BL/6J mice. As to conditions: single mice and mean; for Blood lipid level: Inhibition group (hM4D(Gi) virus + CNO i.p. 7 d). The text has this:
In the present disclosure, the mice were fed with a high-fat diet in which a mass percentage of fat was 60% for 12 weeks, and when a body weight reached 35 g or more, animal models of alimentary obesity were successfully constructed. At a formal stage of the experiment (starting on day 0 in FIG. 1A, FIG. 3A, FIG. 6A, and FIG. 7A), the mice were raised in single cages, during which a daily food intake of each mouse model was accurately recorded, the feces was collected before and after drug intervention, and a daily body weight curve was recorded.
The chemogenetic approach designer receptors exclusively activated by designer drugs (DREADDs) is a research method that controls neuronal excitability in a specific brain region in an animal model, where a downstream signaling pathway of a specific exogenous ligand clozapine N-oxide (CNO) is activated through an adeno-associated virus (AAV) modified by a G protein-coupled receptor (GPCR) to cause a change in neuronal excitability. […]
Four weeks after recovery from surgery, mice in the chemogenetic inhibition group and the control group each were intraperitoneally injected with CNO (Catalog No. BML-NS105, Enzo Life Sciences, USA) at a dose of 1.0 mg/kg BW every day to inhibit the neuronal activity of the DMV, and the daily food intake and body weight were measured and the feces was collected for the mice. The mice were sacrificed after being continuously injected with CNO for 7 d to inhibit the DMV, mouse tissue samples were collected, and physiological and metabolic indexes were detected and analyzed.
A method for determining TG in a sample was as follows: 20 mg to 30 mg of a sample was first weighed, a 5% NP40-containing lysis buffer was added, and a resulting mixture was homogenated and incubated in a metal bath at 95° C. for 5 min, which was repeated twice. […] 2 μl of the supernatant was added to each well, and after a chromogenic reaction was completed, a value of each well was determined by a microplate reader. […]

Values joined by “and” are separate entries in the source; they are usually repeats but may differ in a detail not shown here. Equal values may be shown once.

As to `C[N+]1([O-])CCN(C2=Nc3cc(Cl)ccc3Nc3ccccc32)CC1` [CNO, clozapine N-oxide], the Blood lipid level was 0.7414 mM and 0.9111 mM and 0.6521 mM and 0.4645 mM and 0.8754 mM and 0.6342 mM and 0.7146 mM. For the same compound, under “mean”, the Blood lipid level was found to be 0.7169 mM. In addition, the “Body weight curve change percentage” value (Inhibition group (hM4D(Gi) virus in DMV, CNO 1.0 mg/kg BW i.p. daily), Day 0 baseline) worked out at 0.00%.

Values taken from patent US20240173344A1, “USE OF GABAA RECEPTOR AS TARGET IN PREPARATION OR SCREENING OF DRUG FOR LOWERING BLOOD LIPID LEVEL, TREATING OBESITY, AND/OR IMPROVING METABOLISM” (SHANGHAI INSTITUTE OF ENDOCRINE AND METABOLIC DISEASES, priority 2022, published 2024).
